Measured values: patent publication US20260224723A1, “ANTI-B7H3 ANTIBODY-DRUG CONJUGATE AND USE THEREOF” (Duality Biologics (Suzhou) Co., Ltd., priority 2022, published 2026)

Assay: Pharmacokinetic study, single intravenous infusion in cynomolgus monkeys
Settings: both, cynomolgus monkey, in vivo
Protocol: 18 cynomolgus monkeys (half female and half male) were weighed one day before administration, stratified based on the weight, and then randomly divided into 3 groups (3 females and 3 males/group): a low dose group (1 mg/kg), a medium dose group (3 mg/kg), and a high dose group (10 mg/kg). […] Blood was collected from the forelimb veins of cynomolgus monkeys in each group, and treated samples of the blood collected at 0 h before and 0.5 […], and 672 h after the administration were used as PK samples. After the blood collection at each time point was completed, serum was obtained by centrifugation for sample analysis.

CC[C@@]1(O)C(=O)OCc2c1cc1n(c2=O)Cc2c-1nc1cc(F)c(C)c3c1c2[C@@H](NC(=O)C[C@H](C)O)CC3 [P-III-30]
AUC0-t (3 mg/kg): 1.07 ng·h/mL | Cmax (3 mg/kg): 0.133 ng/mL | AUC0-t (10 mg/kg): 44.5 ng·h/mL
